Results taken from patent publication US8853194B2, “Sterol derivatives and their synthesis and use” (priority 2009, dated 2014).
Several values for one entry are separate records, joined by “and”; a condition that tells them apart may be missing. Identical values can stand only once. Like-named read-outs stand apart in the source and are kept apart here. Marks after values point to notes of the source that are not given here.

What was measured:
mouse hepatoma cells H22 = system: mouse hepatoma cells H22
Procedure: Ascites mice S180 and H22 that had been vaccinated 7 days were sacrificed by cervical, from which ascites were obtained under sterile conditions respectively; the obtained ascites were washed twice with culture medium RPMI1640, and prepared to a 2×10^7/ml suspension in sterile physiological saline. The suspension of cell S180 was inoculated subcutaneously in the right axillas of 40 mice (0.1 ml/mouse) to produce solid tumor models; while the suspension of cell H22 was inoculated in abdominal cavities of 40 mice (0.2 ml/mouse) by conditional means under sterile conditions to produce ascites tumor models.
90 mice were randomly divided into 9 groups of 3 types, wherein the first type group was a normal control group, the second type groups were S180 solid tumor groups including a positive (cyclophosphamide) control group, a negative control group, a low dose group and a high dose group, and the third type groups were H22 ascites groups including a positive (cyclophosphamide) control group, a negative control group, a low dose group and a high dose group. There were 10 mice in each group. The experiment was repeated for three times.
[…], the negative control group was injected same volume of corn oil, and the positive control group was injected cyclophosphamide injection solution with the dose of 0.02 g/(Kg.d). The used injection volume was 0.1 ml/mouse and the injection was given as intraperitoneal injection every other day for 15 days. During the 15 days, general activities, fur, feces, etc. of the mice were daily observed. 24 hours after the last administration, mice that had been inoculated subcutaneously with S180 were sacrificed by cervical, from which tumors, thymus and spleen were taken out. After the last administration, mice that had been inoculated in abdominal cavities with H22 were conventionally bred continually, weighted and observed the survival time every day until all the mice in the negative group were dead.
24 hours after the inoculation of ascites, the weight and the amount of abdominal circumference of the mice in the groups of ascites models were measured. The drug administration and breeding were continued according to different groups, the weight and the abdominal circumference were measured daily until one day before death. The weight increase (g) and abdominal-circumference increase (cm) were calculated. The experiment started on the day of tumor inoculation and ended on the day when all the mice in the negative control group were dead; the time of deaths were recorded, and the survival extending rate was calculated. Survival Extending Rate(%)=[(mean survival days of treatment group−mean survival days of negative control group)/mean survival days of control group]×100%
After finishing the administration in all mice in the solid tumor group, the mice were sacrificed and their spleens and livers were weighed by electronic balance. The spleen index was equivalent to the spleen weight (mg) of mice in each group divided by the weight of the mice, while the liver index was equivalent to the liver weight […] divided by the weight (g) of the mice.

[1] = system: human hepatoma cell HepG2
Procedure: (§1) The human hepatoma cells HepG2, human lung cancer cells A549 and NIH3T3 cells were recovered, and subcultured in culture flasks. Once the cells grew to the logarithmic phase, the experiment can be started. The cells were digested by high-pressure filtered trypsin to prepare a cell-containing suspension, dyed for 3 minutes with 0.4% trypan blue, and then counted with the blood-cell counter (living cells were not colored, while dead cells were stained blue).
(§2) The three types of cells in logarithmic phase were seeded in 96-well plates with a density of 1×10^4/ml (200 μL/well), and then cultivated for 24 hours at 37° C. in 5% CO2 cultivable box. The culture media was aspirated and discarded. […] After cultivating for 24 hours and 48 hours, 100 ul supernatant was carefully aspirated and discarded, respectively. MTS (20 μl/well) was added and mixed evenly. The mixture was cultivated for 1 hour at 37° C. in 5% CO2 cultivable box. The absorbency at 492 nm was determined by quantitative Enzyme-linked immunosorbent assay (ELISA). The experiment was repeated for three times. The growth inhibition rate was calculated as follows. Growth Inhibition rate(%)=[(mean OD value of control group−mean OD value of treatment group)/mean OD value of control group]×100%

[2] = system: human immortalized fibroblast cell NIH3T3
Procedure: as §1, §2

[3] = system: human lung cancer cell A549
Procedure: as §1, §2

Bcl-2 = conditions: tumor tissue, ratio to β-actin, n=3
P21 = conditions: tumor tissue, ratio to β-actin, n=3
Procedure: (§3) 3. Detecting the activity of tumor cells VEGF, P53, P21, Bcl-2 (taking β-Actin as an internal reference)
(§4) Using Protein Electrophoresis (Western Blot) Method
(§5) A bean sized tumor tissue dissected previously was shredded and put into a pre-cooled tissue grinder. 400 μl tissue lysis solution was added. After 10 minutes carefully grinding, the mixture was transferred into a 1.5 ml centrifugal tube, and then, after intensely vortexing the tube for 15 seconds, the mixture was placed on ice for 10 minutes and repeatedly oscillated. After centrifuging 20 minutes (12000 rpm), the supernatant was collected, transferred into a pre-cooled Eppendorf tube, and then separately charged and frozen stored at −80° C. for detecting the activity level of various antibodies.
(§6) 3.4.3 Reaction with the first antibody: The first antibody was diluted by TBST solution at a ratio of 1:200, and then reacted with the PVDF film at 4° C. for a night. In the next day, after balanced at room temperature for one hour, the reaction mixture was washed with TBST for 3 times.

P53 = conditions: tumor tissue, ratio to β-actin, n=3
Procedure: as §3, §4, §5, §6

VEGF = conditions: tumor tissue, ratio to β-actin, n=3
Procedure: as §3, §4, §5, §6

[4] = H22 ascites mice, low dose 16 mg/kg i.p. every other day for 15 days

CC(C)CCC[C@@H](C)[C@H]1CC[C@@H]2[C@]1(C)CC[C@H]1[C@]23C=C[C@]2(CC(=O)CC[C@]12C)OO3 [CL168-6, 5α,8α-cyclicobioxygen-6-cholesten-3-one]
Abdominal circumference increase (cm) (mouse hepatoma cells H22; H22 ascites mice, high dose 32 mg/kg i.p. every other day for 15 days): 2.32 ± 0.71^(2)(4) cm | Abdominal circumference increase (cm) (mouse hepatoma cells H22; [4]): 2.84 ± 0.34^(2)(3) cm | Survival extending rate (%) (mouse hepatoma cells H22; [4]): 37.11% | Survival time (day) (mouse hepatoma cells H22; [4]): 13.3 ± 1.77^(4) day | Weight increase (g) (mouse hepatoma cells H22; [4]): 7.16 ± 1.39^(4) g | Liver index (100 g/g) (mouse hepatoma cells H22; mouse, in vivo, ip, 16 mg/kg): 4.9 ± 0.24^(1)(4) 100 g/g | Spleen index (mg/g) (mouse hepatoma cells H22; mouse, in vivo, ip, 16 mg/kg): 6.53 ± 1.29^(2)(4) mg/g | Liver index (100 g/g) (mouse hepatoma cells H22; mouse, in vivo, ip, 32 mg/kg): 5.19 ± 0.64^(2)(4) 100 g/g | Spleen index (mg/g) (mouse hepatoma cells H22; mouse, in vivo, ip, 32 mg/kg): 5.76 ± 0.96^(2)(4) mg/g | Survival extending rate (%) (mouse hepatoma cells H22; mouse, in vivo, ip, 32 mg/kg): 51.55% | Survival time (day) (mouse hepatoma cells H22; mouse, in vivo, ip, 32 mg/kg): 14.7 ± 1.41^(4) day | Weight increase (g) (mouse hepatoma cells H22; mouse, in vivo, ip, 32 mg/kg): 5.05 ± 1.88^(4) g | 24 h Inhibition rate (%) HepG2 ([1]; 2.5 μg/ml): 52.85% | 48 h Inhibition rate (%) HepG2 ([1]; 2.5 μg/ml): 59.83% | 24 h Inhibition rate (%) HepG2 ([1]; 5.0 μg/ml): 58.51* % | 48 h Inhibition rate (%) HepG2 ([1]; 5.0 μg/ml): 69.08* % | 24 h Inhibition rate (%) HepG2 ([1]; 10.0 μg/ml): 64.39% | 48 h Inhibition rate (%) HepG2 ([1]; 10.0 μg/ml): 73.67% | 24 h Inhibition rate (%) NIH3T3 ([2]; 2.5 μg/ml): 3.87% | 48 h Inhibition rate (%) NIH3T3 ([2]; 2.5 μg/ml): 0.75% | 24 h Inhibition rate (%) NIH3T3 ([2]; 5.0 μg/ml): 5.69% | 48 h Inhibition rate (%) NIH3T3 ([2]; 5.0 μg/ml): 1.97% | 24 h Inhibition rate (%) NIH3T3 ([2]; 10.0 μg/ml): 8.45% | 48 h Inhibition rate (%) NIH3T3 ([2]; 10.0 μg/ml): 5.37% | 24 h Inhibition rate (%) A549 ([3]; 2.5 μg/ml): 48.69% | 48 h Inhibition rate (%) A549 ([3]; 2.5 μg/ml): 51.91% | 24 h Inhibition rate (%) A549 ([3]; 5.0 μg/ml): 55.78* % | 48 h Inhibition rate (%) A549 ([3]; 5.0 μg/ml): 59.75* % | 24 h Inhibition rate (%) A549 ([3]; 10.0 μg/ml): 62.40% | 48 h Inhibition rate (%) A549 ([3]; 10.0 μg/ml): 69.67% and 69.37* % | relative expression level of bcl-2 (Bcl-2): 0.75±0.04 | relative expression level of P21 (P21): 0.79±0.07 | relative expression level of P53 (P53): 0.74±0.03 | relative expression level of VEGF (VEGF): 0.46±0.08
